Assay: solvent given as SMILES

COc1cc(C=O)cc(-c2cc(C=O)cc(OC)c2O)c1O
Conditions	solvation free energy, 298 K [kJ/mol]
in CCC(C)=O	-91.5
in Cc1ccccc1	-82.1
in ClC=CCl	-86.1

CCCCCI
Conditions	solvation free energy, 298 K [kJ/mol]
in O	-0.586

COC=O
Conditions	solvation free energy, 298 K [kJ/mol]
in C=CCCCCCCCCCCCCCC	-8.16
in CC(=O)N(C)C	-14.3
in CCCCCCCCCCCCCCCC	-8.12
in CCCCN(C=O)CCCC	-12.4
in CCOCCO	-12.9
in CN1CCCC1=O	-15.5
in CNC(C)=O	-13.2
in CS(C)=O	-13.7
in NC=O	-12.8
in O	-11.6
in [2H]O[2H]	-11.8

COC(C)(OC)OC
Conditions	solvation free energy, 298 K [kJ/mol]
in O	-18.5

CNC
Conditions	solvation free energy, 298 K [kJ/mol]
in CCCCCC	-10.4
in CCCCCCCCCC	-9.67
in CCCCCCCCO	-11.4
in CCCO	-12.5
in CCO	-13.7
in CN(C)C=O	-12
in CO	-14.7
in ClC(Cl)(Cl)Cl	-12
in N#Cc1ccccc1	-11.7
in O	-18

CC(=O)Oc1ccccc1
Conditions	solvation free energy, 298 K [kJ/mol]
in O	-20

CCCN(C)N=O
Conditions	solvation free energy, 298 K [kJ/mol]
in CC(C)CC(C)(C)C	-20.9

Sc1ccccc1
Conditions	solvation free energy, 298 K [kJ/mol]
in O	-10.7

CC(C)=CC(C)(C)C
Conditions	solvation free energy, 298 K [kJ/mol]
in CCC(C)=O	-18.4
in O	7.7

c1ccc2c(c1)Cc1ccccc1C2
Conditions	solvation free energy, 298 K [kJ/mol]
in O	-15.8

CCCCCCCCOC(=O)c1ccccc1C(=O)OCCCCCCCC
Conditions	solvation free energy, 298 K [kJ/mol]
in O	-27.9

CCCC(C)C
Conditions	solvation free energy, 298 K [kJ/mol]
in Brc1ccccc1	-14.3
in C1CCCCC1	-16.2
in C1CCOC1	-15.5
in C1COCCO1	-12.7
in C=CCCCC	-16.1
in C=CCCCCCC	-15.6
in C=CCCCCCCCC	-15.2
in C=CCCCCCCCCCCCCCC	-13.9
in CC1COC(=O)O1	-8.28
in CC#N	-10.5
in CC(=O)N(C)C	-11.1
in CC(=O)O	-11.4
in CC(=O)c1ccccc1	-11.9
in CC(C)=O	-12.9
in CC(C)CC(C)(C)C	-15.6
in CC(C)CCCC(C)CCCC(C)CCCCC(C)CCCC(C)CCCC(C)C	-13.7
in CC(C)CCO	-13.5
in CC(C)O	-12.6
in CC(C)OC(C)C	-15.8
in CCBr	-16.2
in CCC#N	-11.9
in CCC(C)=O	-13.7
in CCCC#N	-12.8
in CCCC(=O)OCC	-14.5
in CCCC(C)=O	-14
in CCCCC	-16.4
in CCCCCC	-16.2
in CCCCCC(C)=O	-14
in CCCCCCC	-15.8
in CCCCCCCC	-15.5
in CCCCCCCCC	-15.4
in CCCCCCCCCC	-15.2
in CCCCCCCCCCCC	-14.7
in CCCCCCCCCCCCCCCC	-14.4
in CCCCCCCCCOC(=O)c1ccccc1C(=O)OCCCCCCCCC	-12.6
in CCCCCCCCO	-13.3
in CCCCCCOC(C)=O	-14.3
in CCCCCO	-13.8
in CCCCO	-13.1
in CCCCOC(C)=O	-14.2
in CCCCOCCCC	-15.5
in CCCO	-12.6
in CCN(CC)CC	-15.9
in CCO	-12.4
in CCOC(C)=O	-13.8
in CCOCC	-15.8
in CCOCCOCCOCC	-13.4
in CCOc1ccccc1	-13.6
in CN1CCCC1=O	-10.7
in CN1CCCCC1=O	-10.8
in CN(C)C=O	-10.5
in CN(C)P(=O)(N(C)C)N(C)C	-12
in CNC=O	-9.37
in CO	-11.2
in COC(C)(C)C	-15.8
in COC(C)=O	-13.1
in COCCO	-10.6
in COc1ccccc1	-13.4
in CS(C)=O	-7.45
in Cc1ccc(C)cc1	-15.2
in Cc1ccccc1	-15.3
in Cc1ccccn1	-13.7
in ClC(Cl)(Cl)Cl	-16.1
in ClC(Cl)Cl	-15.6
in ClCCCl	-13.6
in ClCCl	-14.8
in Clc1ccccc1	-15.1
in FC(F)(F)C(F)(F)C(F)(F)C(F)(F)C(F)(F)C(F)(F)C(F)(F)C(F)(F)F	-10.2
in FC(F)(F)C(F)(F)C(F)(F)C(F)(F)C(F)(F)C(F)(F)F	-10.6
in Fc1ccccc1	-15.2
in ICI	-8.12
in N#Cc1ccccc1	-12.2
in Nc1ccccc1	-9.54
in O	10.5
in O=C1CCCCC1	-13.2
in O=C1CCCO1	-8.79
in OCc1ccccc1	-10.3
in S=C=S	-16
in c1ccccc1	-15.1
in c1ccncc1	-12.8

Source: the CombiSolv-Exp solvation set (Vermeire and Green 2021)
